Patent publication US12419339B2, “Aerosolized formulation” (priority 2018, dated 2025)
Where two headings read alike, the source gives them in different places.

Type: physicochemical
Conditions: prior to aerosolization

SMILES	liquid analysis, content (formulation containing 1-menthol (83.1% water, 15.0% 2-hydroxy-propyl-β-cyclodextrin, 0.9% 1-menthol, 1% nicotine))	liquid analysis, content (formulation containing 1-menthol)	liquid analysis, content (formulation containing vanillin)
CC1CCC(C(C)C)C(O)C1 (stereo not drawn) [1-menthol]	0.8 % (w/w)	8 mg/g	–
COc1cc(C=O)ccc1O [vanillin]	–	–	5 mg/g
